Data on three compounds can be found in PubChem BioAssay (NCI).

Holding throughout (experiment): NCI tumour cell line growth inhibition, 48 h
In test [1] the test system is MDA-MB-231 breast.
In test [2] the test system is MDA-MB-435.
Test [3] relates to HS 578T breast.
Test [4] deals with BT-549 breast.
Test [5] relates to SN12K1 renal.
For test [6], the system named is SNB-78 CNS.
Test [7] concerns XF 498 CNS.
The subject of test [8] is P388 leukemia.
Test [9] relates to P388/ADR leukemia.
Test [10] relates to DMS 114 small cell lung.
Test [11] concerns A498 renal.
Test [12] has as its system HOP-18 NSCLC.

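96-well plates; 48 h exposure; 5 concentrations. Endpoints by linear interpolation between flanking doses. Not reached: highest tested concentration assigned. Abbreviation: GI50, concentration required for 50% inhibition of growth. TGI is the concentration that stops growth completely.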

`CN1CCN(Cn2nc(-c3cc(F)c(Cl)cc3Cl)oc2=S)CC1`: the GI50 is 17.8 µM in [1], 40.5 µM in test [2] and 28.5 µM in [3]. Further, the TGI in [1] is 62.5 µM; in test [2] it was > 100 µM; in test [3], 86.8 µM.

`O=c1[nH]c(-c2ccc(Cl)cc2)cc2ccsc12`: the TGI in [4] is > 100 µM.

Take `COc1cccc2c1C(=O)c1c(O)c3c(c(O)c1C2=O)CC(O)(C(C)=O)CC3O` (stereo not given): the TGI in test [5] came out at 10.5 µM; in [6] it was 48 µM; in test [7], 1.31 µM; in test [8], 9.69 µM; in [9], 9.23 µM; in [10], 24.1 µM. In addition, the TGI in test [11] worked out at 17.2 µM; in test [12], 41.5 µM.
